In article PMC8876511, “Two out of Three Musketeers Fight against Cancer: Synthesis, Physicochemical, and Biological Properties of Phosphino Cu^I, Ru^II, Ir^III Complexes” (Pharmaceuticals, 2022):

Experiments:
[1] = Solubility (qualitative); format: physicochemical
[2] = system: PANC-1 cells; assay: MTT cytotoxicity assay, PANC-1; format: cell-based, human
Protocol: (§1) Moreover, to investigate the activity of synthesized complexes as potential anticancer agents, their cytotoxicity toward a series of human cancer cell lines and a non-cancer cell line (HaCaT) was evaluated using the MTT assay. […] In addition, we also determined the cytotoxic activity of free ligands toward selected cancer cells. […] However, this effect depends on the cell line. […] The best values of cytotoxic activity of compounds have been obtained after 72 h of cell incubation. Additionally, synthesized complexes had high sensitivity to A549 cells, so this cell line was selected as the research subject for antitumor activity.
(§2) Since most of the studied compounds are insoluble in aqueous media (Dulbecco’s Modified Eagle’s Medium or minimum essential medium (MEM, Corning), therefore, they needed to be pre-dissolved in DMSO for biological tests. DMSO concentration was kept below 1% in each tested concentration of each compound. Cytotoxicity was assessed by MTT assay performed according to the protocols described previously in the following experimental approaches: 6 h + 24 h, 24 h + 24 h, and 72 h + 24 h. In brief, 5×10^3 per well (0.2 mL) in the two first approaches, while 1×10^4 cells in the case of longer incubation time were seeded in 96-well flat-bottom microtiter plate, were incubated with the tested complexes at various ranges of concentrations. After an appropriate incubation time of 6, 24, or 72 h, the cells were washed thee time with PBS and fresh medium was applied for a further 24 h in each approach. Various compound concentrations (dilutions in proper medium supplemented with 1% FBS) were tested in five replicates and repeated at least three times. Determined values of IC50 (concentration of a drug required to inhibit the growth of 50% of the cells) are given as mean + S.D. (Standard Deviation). IC50 values were determined, from the plots of cell viability in the presence of various concentrations of each compound by matching dose–response curves and using the Origin 9.0 software. Furthermore, post-treatment survival assessment of the treated cells was analyzed under an inverted fluorescence microscope (Olympus IC51, Japan) with an excitation filter 470/20 nm. For this, cells were stained with two versatile fluorescence dyes: fluorescein diacetate (FDA, 5 mg/mL) and propidium iodide (PI, 5 mg/mL) in standard conditions in the dark for 20 min. Before visualization, dyes were removed and cells were washed with PBS twice.

[3] = system: HaCaT cells; assay: MTT cytotoxicity assay, HaCaT (non-cancer); format: cell-based, human
Protocol: as §1
(§3) MCF7 cell line (human breast adenocarcinoma, morphology: epithelial-like, ATCC: HTB-22) and A549 cell line (human lung adenocarcinoma, morphology: epithelial, ATCC: CCL-185); HaCaT (human keratinocyte) were cultured in Dulbecco’s Modified Eagle’s Medium (DMEM, Corning, Poland) with phenol red, supplemented with 10% fetal bovine serum (FBS) and with 1% streptomycin/penicillin. Du-145 cell line (human prostate carcinoma); derived from metastatic site: brain was cultured in minimum essential medium (MEM, Corning) with only 10% fetal bovine serum (FBS). Cultures were incubated at 37 °C under a humidified atmosphere containing 5% CO2. Cells were passaged using a solution containing 0.05% trypsin and 0.5 mM EDTA. All media and other ingredients were purchased from ALAB, Poland.
as §2

[4] = system: MCF-7 cells; assay: MTT cytotoxicity assay, MCF-7; format: cell-based, human
Protocol: as §1, §3
as §2, with “Cytotoxicity was assessed by MTT assay performed according to the protocols described previously in the following experimental approaches: 6 h + 24 h, 24 h + 24 h, and 72 h + 24 h.” left out, “After an appropriate incubation time of 6, 24, or 72 h, the cells were washed thee time with PBS and fresh medium was applied for a further 24 h in each approach.” left out

[5] = system: PANC-1 cells; assay: MTT cytotoxicity assay, PANC-1; format: cell-based, human; remark: listed apart in the source
[6] = system: A549 cells; assay: MTT cytotoxicity assay, A549; format: cell-based, human
Protocol: as §1, §3, §2

[7] = system: Du-145 cells; assay: MTT cytotoxicity assay, Du-145; format: cell-based, human
Protocol: as §1, §3
as §2, with “Cytotoxicity was assessed by MTT assay performed according to the protocols described previously in the following experimental approaches: 6 h + 24 h, 24 h + 24 h, and 72 h + 24 h.” left out, “After an appropriate incubation time of 6, 24, or 72 h, the cells were washed thee time with PBS and fresh medium was applied for a further 24 h in each approach.” left out

[8] = Partition coefficient, shake-flask method (n-octanol/PBS); format: physicochemical
Protocol: The partition coefficient was determined by the shake-flask method. A small amount of compound was dissolved in 5 mL PBS-saturated n-octanol. The sample was sonicated until all the compound was dissolved. Next, 5 mL of PBS saturated with n-octanol was added and the experiment proceeded as before. The resulting mixture was vortexed for 30 min in horizontal position. The sample was centrifuged for 2 min at 3700 rpm to obtain a phase separation. Next, 2 mL of each phase was taken. The next steps were a 5 min sonication and measurement of absorption spectra of the obtained solutions. The calibration curve was prepared in order to determine the concentration of the tested compounds in individual solutions. It was made using the absorption intensity of the compounds in series dilution solutions in PBS saturated with octanol or octanol saturated with PBS in the concentration range c = 1–100 nM.

[9] = system: HaCaT cells; assay: MTT cytotoxicity assay, HaCaT (non-cancer); format: cell-based, human; conditions: 48 h
[10] = system: A549 cells; assay: MTT cytotoxicity assay, A549; format: cell-based, human; remark: listed apart in the source
[11] = Stability towards atmospheric oxygen (UV-Vis); format: physicochemical
Protocol: Oxidation of copper(I) to copper(II) was observed within 12 h using UV-Vis spectroscopy (Figure 1) that was additionally conformed by color of the copper(I) inorganic compound solution changing from transparent to green. Additionally, oxidation of phosphines ligands (1, 2) was observed. It is worth mentioning that copper(I) ions can easily undergo oxidation processes. The instability of copper(I) complexes prevented us from evaluating their biological activity.

| Compound | solubility in mixture of H2O:DMSO (100:1) [1] | IC50 ([2]; 24 h) | IC50 ([2]; 72 h) | IC50 ([3]; 24 h) | IC50 ([3]; 72 h) | IC50 ([4]; 24 h) | IC50 ([4]; 48 h) | IC50 ([4]; 72 h) | IC50 ([5]; 48 h) | IC50 ([6]; 24 h) | IC50 ([6]; 72 h) | IC50 ([7]; 24 h) | IC50 ([7]; 48 h) | IC50 ([7]; 72 h) | IC50 [9] | IC50 ([10]; 48 h) | IC50 ([2]; Homo sapiens, PANC-1, 72 h) | IC50 ([3]; Homo sapiens, HaCaT, 72 h) | IC50 ([4]; Homo sapiens, MCF7, 48 h) | IC50 ([4]; Homo sapiens, MCF7, 72 h) | further results |
| --- | --- | --- | --- | --- | --- | --- | --- | --- | --- | --- | --- | --- | --- | --- | --- | --- | --- | --- | --- | --- | --- |
| CC#N.CC#N.CCN(CC)CP(c1ccccc1)c1ccccc1.CCN(CC)CP(c1ccccc1)c1ccccc1.F[B-](F)(F)F.[Cu+] [1c, [Cu(NCCH3)2(Ph2PCH2N(CH2CH3)2)2]^+BF4^−] | well soluble |  |  |  |  |  |  |  |  |  |  |  |  |  |  |  |  |  |  |  |  |
| CCCCN(CCCC)C[P+](c1ccccc1)(c1ccccc1)[Ir-3]([Cl])([Cl])[C]1(C)C(C)=C(C)C(C)=C1C [2a, Ir(η^5-Cp*)Cl2Ph2PCH2N(CH2CH2CH2CH3)2] |  | 106 ± 5 µM | 85 ± 16 µM | 559 ± 25 µM | 302 ± 22 µM | 125 ± 15 µM | 189 ± 20 µM | 56 ± 6 µM | 198 ± 20 µM | 79 ± 6 µM | 16 ± 3 µM | 69 ± 6 µM | 69 ± 8 µM | 13 ± 2 µM | 420 ± 12 µM | 61 ± 3 µM |  |  |  |  | Experimental LogP (logPo/w) [8]: 4.0 |
| CC#N.CC#N.CCCCN(CCCC)CP(c1ccccc1)c1ccccc1.CCCCN(CCCC)CP(c1ccccc1)c1ccccc1.F[B-](F)(F)F.[Cu+] [2c, [Cu(NCCH3)2(Ph2PCH2N(CH2CH2CH2CH3)2)2]^+BF4^−] | well soluble |  |  |  |  |  |  |  |  |  |  |  |  |  |  |  |  |  |  |  |  |
| N.N.[Cl][Pt][Cl] [Cisplatin, reference compound] |  | 166 ± 20 µM | 79 ± 5 µM | 400 ± 3 µM | 102 ± 2 µM | 176 ± 5 µM | 151 ± 6 µM | 64 ± 4 µM | 131 ± 7 µM | 70 ± 8 µM | 11 ± 3 µM | 85 ± 7 µM | 81 ± 8 µM | 50 ± 2 µM | 362 ± 4 µM | 66 ± 9 µM |  |  |  |  |  |
| CCN(CC)CP(c1ccccc1)c1ccccc1 [compound 1, Ph2PCH2N(CH2CH3)2] |  |  |  |  |  |  |  |  |  |  |  |  |  |  |  |  | 185 ± 12 µM | 490 ± 12 µM | 149 ± 13 µM | 192 ± 20 µM | IC50 ([2]; Homo sapiens, PANC-1, 24 h): 426 ± 7 µM; IC50 ([3]; Homo sapiens, HaCaT, 24 h): 646 ± 20 µM; sensitivity to oxidation in solution [11]: extremely sensitive to oxidation in solution; IC50 ([4]; Homo sapiens, MCF7, 24 h): 458 ± 11 µM; IC50 ([6]; Homo sapiens, A549, 24 h): 620 ± 9 µM; IC50 ([6]; Homo sapiens, A549, 72 h): 183 ± 12 µM; IC50 ([7]; Homo sapiens, DU-145, 24 h): 203 ± 19 µM; IC50 ([7]; Homo sapiens, DU-145, 72 h): 86 ± 6 µM; solubility in H2O [1]: moderately; IC50 ([9]; Homo sapiens, HaCaT): 458 ± 20 µM; IC50 ([10]; Homo sapiens, A549, 48 h): 47 ± 5 µM |
| CCCCN(CCCC)CP(c1ccccc1)c1ccccc1 [compound 2, Ph2PCH2N(CH2CH2CH2CH3)2] |  |  |  |  |  |  |  |  |  |  |  |  |  |  |  |  | 142 ± 20 µM | 448 ± 25 µM | 125 ± 20 µM | 285 ± 11 µM | IC50 ([2]; Homo sapiens, PANC-1, 24 h): 386 ± 6 µM; IC50 ([3]; Homo sapiens, HaCaT, 24 h): 556 ± 13 µM; sensitivity to oxidation in solution [11]: extremely sensitive to oxidation in solution; IC50 ([4]; Homo sapiens, MCF7, 24 h): 355 ± 13 µM; IC50 ([5]; Homo sapiens, PANC-1, 48 h): 158 ± 23 µM; IC50 ([6]; Homo sapiens, A549, 24 h): 569 ± 11 µM; IC50 ([6]; Homo sapiens, A549, 72 h): 158 ± 11 µM; IC50 ([7]; Homo sapiens, DU-145, 24 h): 185 ± 12 µM; IC50 ([7]; Homo sapiens, DU-145, 48 h): 54 ± 8 µM; IC50 ([7]; Homo sapiens, DU-145, 72 h): 57 ± 4 µM; solubility in H2O [1]: moderately; IC50 ([9]; Homo sapiens, HaCaT): 420 ± 11 µM; IC50 ([10]; Homo sapiens, A549, 48 h): 72 ± 6 µM |
| CCCCNCCCC [dibutylamine] |  |  |  |  |  |  |  |  |  |  |  |  |  |  |  |  | > 1000 µM | > 1000 µM | 226 ± 20 µM | > 1000 µM | IC50 ([5]; Homo sapiens, PANC-1, 48 h): 258 ± 6 µM; IC50 ([6]; Homo sapiens, A549, 72 h): > 1000 µM; IC50 ([7]; Homo sapiens, DU-145, 48 h): 103 ± 7 µM; IC50 ([7]; Homo sapiens, DU-145, 72 h): > 1000 µM; IC50 ([9]; Homo sapiens, HaCaT): 445 ± 25 µM; IC50 ([10]; Homo sapiens, A549, 48 h): 387 ± 25 µM |
| CCNCC [diethylamine] |  |  | > 1000 µM |  | > 1000 µM |  | 352 ± 25 µM | > 1000 µM | 305 ± 13 µM |  | > 1000 µM |  | 126 ± 12 µM | > 1000 µM | 545 ± 33 µM | 425 ± 38 µM |  |  |  |  |  |
| Ru(η^6-p-cymene)Cl2Ph2PCH2N(CH2CH2CH2CH3)2 [2b] | well soluble | 126 ± 6 µM | 112 ± 18 µM | 545 ± 13 µM | 347 ± 25 µM | 226 ± 20 µM | 226 ± 20 µM | 121 ± 20 µM | 258 ± 6 µM | 81 ± 4 µM | 14 ± 2 µM | 102 ± 6 µM | 103 ± 7 µM | 17 ± 3 µM | 445 ± 25 µM | 387 ± 25 µM |  |  |  |  | Experimental LogP (logPo/w) [8]: 3.84 |
